Test results reported in US7468449B2, “Phenyl-furan compounds as vitamin D receptor modulators” (Eli Lilly and Company, priority 2003, dated 2008).
Values joined by “and” are separate entries in the source; they are usually repeats but may differ in a detail not shown here. Equal values may be shown once. Read-outs that look alike come from different tables or passages of the source.

Assays:
rat osteocalcin promoter = experiment: OCN (osteocalcin) promoter assay; format: cell-based; conditions: RG-15 (ROS 17/2.8) cells, 48 hr treatment, Table 1
Procedure: 3. The OCN (osteocalcin) Promoter Assay
The OCN Promoter Assay is an indicator and marker for osteoporosis. […] Preferred assay results are less than 50 nM.
(3) Materials and Method for The OCN Promoter Assay:
The activation of osteocalcin by VDR ligands was evaluated in a rat osteoblast-like cell line RG-15 (ROS 17/2.8) stably expressing rat osteocalcin promoter fused with luciferase reporter gene. […] After 24 hr, cells (in DMEM/F-12 medium +2% FBS) were treated with various concentrations of compounds, dissolved in DMSO. The final DMSO concentration remained at 0.01% (v/v). After 48 hr treatment, the medium was removed, cells were lysed with 50 μl of lysis buffer (From Luciferase reporter assay system, Roche Diagnostics, Indianapolis, Ind.) and assayed for luciferase activity using the Luciferase Reporter Gene Assay kit from Boehringer Mannheim as per manufacturer's specifications.

[1] = Mouse hypercalcemia assay; conditions: six day hypercalcemia test, oral gavage, serum ionized calcium; Table 1
Procedure: The Mouse Hypercalcemia Assay
(§1) The Mouse Hypercalcemia Assay is a six day hypercalcemia test for toxicity and selectivity. Acceptable test results are levels greater than 300 μg/kg/day. Preferred assay results are levels greater than 1000 μg/kg/day.
(§2) (4) Materials and Method for The Mouse Hypercalcemia Assay:
(§3) Weanling, virus-antibody-free, five to six weeks old female DBF mice (Harlan, Indianapolis, Ind.) are used for all the studies. Animals are allowed to acclimate to local vivarium conditions for 2 days. […] The animals then are divided into groups with 4-5 mice per group. Different doses of test compounds prepared in 10% Ethanol and 90% sesame oil are administered to mice orally via gavage for 6 days. 1α-25(OH)2D3 0.5 μg/kg/d was also given to one group of mice as the positive control. […] Raw data of group differences is assessed by analysis of variance (ANOVA) using Fisher's protected least significant difference (PLSD) where the significance level was P<0.05.

KERtr cells = experiment: Keratinocyte proliferation assay; format: cell-based, Human; conditions: BrdU incorporation
Procedure: 5. The Keratinocyte Proliferation Assay
This Assay is indicative for the treatment of psoriasis.
(5) The Keratinocyte Proliferation Assay:
KERtr cells (Human skin keratinocyte transformed with a retrovirus vector, obtained from ATCC) were plated in 96-well flat-bottomed plates (3000 cells/well) in 100 μl keratinocyte serum free medium supplemented with bovine pituitary extract in the absence of EGF (Life Technologies, Rockville, Md.) and incubated at 37° C. for two days. The cells were treated with various concentrations of VDR ligands (ten-fold serial dilution from 10,000 nM to 0.1 nM in triplicate), dissolved in 100 μl keratinocyte serum free medium supplemented with bovine pituitary extract in the absence of EGF and incubated at 37° C. for 72 hr. […] Potency values (IC50) values were determined as the concentration (nM) of compound that elicited a half-maximal response.

RXR-VDR heterodimer = target: T1, RXR-VDR heterodimer (Homo sapiens, UniProt P11473); experiment: RXR-VDR heterodimerization assay (SaOS-2 cells); format: cell-based; conditions: luciferase reporter, Table 1
T1 construct: Add the Gal-4-RXR-DEF and VP16-VDR-LBD; expressed in transfected cells; host or cells: SaOs-2 cells
T1 sequence (P11473 127-423 limits assumed): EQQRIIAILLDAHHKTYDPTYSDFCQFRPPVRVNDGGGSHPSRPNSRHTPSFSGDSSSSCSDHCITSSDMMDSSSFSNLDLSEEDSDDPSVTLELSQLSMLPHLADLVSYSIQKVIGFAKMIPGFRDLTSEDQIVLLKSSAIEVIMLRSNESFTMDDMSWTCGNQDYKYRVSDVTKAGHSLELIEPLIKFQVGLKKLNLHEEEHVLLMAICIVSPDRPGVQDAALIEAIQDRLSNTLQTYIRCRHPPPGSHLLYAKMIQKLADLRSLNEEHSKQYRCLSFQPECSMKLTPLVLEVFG
T1 sequence (P19793 201-462 partner limits assumed): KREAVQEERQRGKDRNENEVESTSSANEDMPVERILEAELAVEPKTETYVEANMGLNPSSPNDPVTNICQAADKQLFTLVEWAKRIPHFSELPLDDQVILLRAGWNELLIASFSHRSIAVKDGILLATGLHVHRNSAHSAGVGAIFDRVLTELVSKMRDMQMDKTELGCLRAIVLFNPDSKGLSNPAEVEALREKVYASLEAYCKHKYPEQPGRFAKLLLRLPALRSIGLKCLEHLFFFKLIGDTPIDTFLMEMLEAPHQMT
Excerpt: 1. The RXR-VDR Heterodimer Assay:
This assay provides the VDR activity of a test compound.
(1) Materials and Method for RXR-VDR Heterodimerization Assay:
Transfection/Treatment Media: • D-MEM Low Glucose Without Phenol Red only
Flat well Plates: • Use well plate to plate cells • Use Deep well plate sterile to make up treatment media.
Luciferase Assay Reagent: • Use Steady-Glo Luciferase Reagent from Promega (Cat #E2550) Consists of: • a. E2533 Assay Substrate, lyopholized product and • b. E2543 Assay Buffer. • Thaw at room temperature • Store Day 1: Cell Plating: • Cell Harvesting • Aspirate media from culture flask, rinse cells with HBSS and aspirate. • Add trypsin and incubate. • When cells appear detached, resuspend cells in growth media. • Transfer into a new flask with fresh growth media for passaging the cells. • Plate well plates and two extra plates A. Cell Count • Mix the cell suspension using pipette • Use Hematocytometer to count the cells • Load cell suspension onto the hemocytometer chamber • Count cells.
Step 1: DNA and Media • Add plain DMEM media to tubes for mixing the DNA • Add the Reporter gene pFR-LUC • Add the Gal-4-RXR-DEF and VP16-VDR-LBD
Step 2: FuGENE and Media • Prepare plain DMEM media in a ubes for mixing PuGENE • Add FuGENE 6 Transection Reagent • Incubate
Step 3: FuGENE, DNA and Media Complex • Add FuGENE Media complex from step 2 to DNA Media complex from step1 • Incubate
Step 4: FuGENE, DNA and Media Complex to-well plate • Add FuGENE-DNA-Media complex from step 3 to each plate • Incubate. […] Day 4: Luciferase Assay • Read the plates after drug treatment • Remove part of media from all the wells and leave remainder • Add Steady-Glo Luciferase Reagent mixture/wells • Incubate • Count each well using a Luminescence counter, Top Count NXT by Packard Set a delay between plates to reduce the background. (2) Materials and Method for The Caco-2 Cell Assay: […]

VDR = target: T2, VDR (Homo sapiens, UniProt P11473); experiment: VDR CTF (Caco-2 cell co-transfection) assay; format: cell-based; conditions: Caco-2 cells, Gal-4-VDR-LBD co-transfection; Table 1
T2 construct: the receptor expression vector pGal-4-VDR-LBD (10 ng); expressed in transfected cells; host or cells: Caco-2 cells
T2 sequence (P11473 127-423 limits assumed): T1 sequence (P11473 127-423 limits assumed)
Procedure: 2. The Caco-2 Cell Co-transfection Assay:
The Caco-2 cell assay is an indicator for the undesirable condition of hypercalcemia. This co-transfection assay is a surrogate assay for in vivo calcemic activity of VDR ligands. […] Preferred assay results are greater than 1000 nM.
Step 4: FuGENE, DNA and Media Complex to-well plate • Add FuGENE-DNA-Media complex from step 3 to each plate • Incubate. […] Day 4: Luciferase Assay • Read the plates after drug treatment • Remove part of media from all the wells and leave remainder • Add Steady-Glo Luciferase Reagent mixture/wells • Incubate • Count each well using a Luminescence counter, Top Count NXT by Packard Set a delay between plates to reduce the background. (2) Materials and Method for The Caco-2 Cell Assay:
Caco-2 cells, grown in phenol red free, DMEM (Invitrogen, Carlsbad, Calif.) containing 10% charcoal-stripped FCS (Hyclone, Logan, Utah), were transfected with Fugene 6 reagent (Roche Diagnostics, Indianapolis, Ind.). Cells (5000/well) were plated 18 h before transfection in a 96 well plate. The Cells were transfected with Gal-4-responsive reporter pFRLuc (150 ng, Stratagene, La Jolla Calif.) and the receptor expression vector pGal-4-VDR-LBD (10 ng), along with Fugene 6 reagent (0.2 μl/well). The DNA-Fugene complex was formed by incubating the mixture for 30 min at room temperature. The cells were transfected in triplicate for 5 h, and treated with various concentrations of VDR ligands (form 0.01 nM to 10,000 nM concentration range) 18 h post-transfection. The luciferase activity was quantified using Steady-Glo reagent kit (Promega, Madison, Wis.) as per manufacturer's specifications.

IL-10 = IL-10 induction assay in PBMCs; format: cell-based; conditions: TPA/PHA stimulated human PBMCs
Excerpt: 6. The IL-10 induction Assay
This is an in vitro efficacy assay for psoriasis, abscess and adhesion. Psoriasis involves both keratinocytes and immune cells. IL-10 is a unique cytokine because it is anti-inflammatory and immunosuppressive. This assay tells us whether a VDRM is able to function as an agonist in PBMCs ([…]) or not.
(6) Materials and Method for human IL-10 Induction Assay: […]

[2] = in vivo, po
Procedure: The Mouse Hypercalcemia Assay
as §1, §2, §3

[3] = 72 hr, Table 2, read-out: Kera. Prolif. IC50

| SMILES | EC50 (rat osteocalcin promoter) [µM] | Mouse Hypercal [1] [µg/kg/day] | IC50 (KERtr cells; [3]) [µM] | EC50 (RXR-VDR heterodimer) | EC50 (VDR) [nM] | IC50 (IL-10; Table 2) [µM] | Mouse Hypercal [2] [µg/kg/day] | EC50 (rat osteocalcin promoter; Rattus norvegicus, 48 h) [µM] | IC50 (KERtr cells; Homo sapiens, Keratinocyte, 72 h, Table 2, read-out: Kera. Prolif. IC50) [µM] | IC50 (KERtr cells; Homo sapiens, Keratinocyte, 72 h, Table 4 comparison compounds, read-out: Kera. Prolif. IC50) [µM] | IC50 (IL-10; PBMC, Table 4 comparison compounds) [µM] |
| --- | --- | --- | --- | --- | --- | --- | --- | --- | --- | --- | --- |
| CCc1cc(C(CC)(CC)c2ccc(C(=O)N(C)OC)o2)ccc1OCC(O)C(C)(C)C (single isomer, unassigned; enantiomer 1) [Ex. 13, 3′-[4-(2-hydroxy-3,3-dimethyl-butoxy)-3-ethylphenyl]-3′-[5-N-methoxy-N-methylamino-carbonyl-2-furanyl]pentane enantiomer 1] | 0.02 | >3000 | 0.018 | 0.018 µM | 572 | 0.0046 | – | – | – | – | – |
| CCc1cc(C(CC)(CC)c2ccc(C(=O)N(C)C)o2)ccc1OCC(O)C(C)(C)C (single isomer, unassigned; enantiomer 2) [Ex. 11, 3′-[4-(2-hydroxy-3,3-dimethyl-butoxy)-3-ethylphenyl]-3′-[5-dimethylaminocarbonyl-2-furanyl]pentane enantiomer 2] | 0.02 | >3000 | 0.018 | 0.0176 µM | 572 | – | – | – | – | – | – |
| C=C1/C(=C\C=C2/CCC[C@]3(C)[C@@H]([C@H](C)CCCC(C)(C)O)CC[C@@H]23)C[C@@H](O)C[C@@H]1O [AA, 1α,25-dihydroxyvitamin D3] | – | – | – | – | – | – | 0.06 | – | – | – | – |
| CCC(CC)(c1ccc(OCC(=O)C(C)(C)C)c(C)c1)c1ccc(C(=O)N(C)C)o1 [Ex. 1, 3′-[4-(2-oxo-3,3-dimethylbutoxy)-3-methylphenyl]-3′-[5-dimethylaminocarbonyl-2-furanyl]pentane] | 0.003 | >1500 | – | 0.0033 µM and 0.0006 µM | 191 | – | – | 0.005 | 0.015 | – | – |
| CCN(C)C(=O)c1ccc(C(CC)(CC)c2ccc(OCC(O)C(C)(C)C)c(C)c2)o1 (stereo not drawn) [Ex. 9, 3′-[4-(2-hydroxy-3,3-dimethyl-butoxy)-3-methylphenyl]-3′-[5-N-ethyl-N-methylamino-carbonyl-2-furanyl]pentane] | 0.03 | – | 0.028 | 0.016 µM | 616 | – | – | – | – | – | – |
| C=C1/C(=C\C=C2/CCC[C@]3(C)[C@@H]([C@H](C)/C=C/[C@@H](O)C4CC4)CC[C@@H]23)C[C@@H](O)C[C@@H]1O [FF, calcipotriol, reference compound] | – | – | – | – | – | – | – | – | – | 0.103 | 0.0005 |
